What all share (experiment): Kinase profile (33P ATP filter binding)
What all share (type): biochemical

In assay [1] the target is T1, ULK1 (Homo sapiens, UniProt O75385).
T1 sequence (O75385 1-1050): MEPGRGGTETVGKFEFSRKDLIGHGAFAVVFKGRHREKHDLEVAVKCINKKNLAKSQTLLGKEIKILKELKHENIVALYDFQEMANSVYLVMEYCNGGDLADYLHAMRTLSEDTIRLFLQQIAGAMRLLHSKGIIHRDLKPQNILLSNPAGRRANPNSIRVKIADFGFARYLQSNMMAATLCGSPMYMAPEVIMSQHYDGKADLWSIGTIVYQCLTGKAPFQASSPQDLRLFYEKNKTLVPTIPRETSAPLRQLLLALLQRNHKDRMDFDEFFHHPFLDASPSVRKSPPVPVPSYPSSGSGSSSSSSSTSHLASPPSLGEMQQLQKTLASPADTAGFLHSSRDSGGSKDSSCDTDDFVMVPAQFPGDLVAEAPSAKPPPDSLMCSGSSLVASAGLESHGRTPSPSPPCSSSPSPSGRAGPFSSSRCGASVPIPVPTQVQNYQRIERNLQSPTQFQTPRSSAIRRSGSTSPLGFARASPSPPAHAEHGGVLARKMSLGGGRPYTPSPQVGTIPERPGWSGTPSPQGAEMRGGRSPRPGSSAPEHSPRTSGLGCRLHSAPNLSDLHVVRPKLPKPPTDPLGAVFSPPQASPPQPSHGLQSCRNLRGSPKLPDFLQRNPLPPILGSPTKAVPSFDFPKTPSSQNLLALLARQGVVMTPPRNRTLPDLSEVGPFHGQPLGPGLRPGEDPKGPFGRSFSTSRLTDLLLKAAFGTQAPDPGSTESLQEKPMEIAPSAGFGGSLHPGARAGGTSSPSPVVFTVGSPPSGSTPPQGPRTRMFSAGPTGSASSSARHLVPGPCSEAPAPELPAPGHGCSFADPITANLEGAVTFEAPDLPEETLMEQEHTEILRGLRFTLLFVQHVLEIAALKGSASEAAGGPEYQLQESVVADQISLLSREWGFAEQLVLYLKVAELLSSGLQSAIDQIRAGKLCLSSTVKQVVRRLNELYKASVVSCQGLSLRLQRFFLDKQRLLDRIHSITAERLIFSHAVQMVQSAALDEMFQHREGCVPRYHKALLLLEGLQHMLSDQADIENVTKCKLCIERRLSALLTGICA

In assay [2] the target is MPSK1 (Homo sapiens, UniProt O75716). The conditions noted are these: read-out: Remaining protein kinase activity.
Assay [3] addresses T2, EPH-B4 (Homo sapiens, UniProt P54760).
T2 sequence (P54760 16-987): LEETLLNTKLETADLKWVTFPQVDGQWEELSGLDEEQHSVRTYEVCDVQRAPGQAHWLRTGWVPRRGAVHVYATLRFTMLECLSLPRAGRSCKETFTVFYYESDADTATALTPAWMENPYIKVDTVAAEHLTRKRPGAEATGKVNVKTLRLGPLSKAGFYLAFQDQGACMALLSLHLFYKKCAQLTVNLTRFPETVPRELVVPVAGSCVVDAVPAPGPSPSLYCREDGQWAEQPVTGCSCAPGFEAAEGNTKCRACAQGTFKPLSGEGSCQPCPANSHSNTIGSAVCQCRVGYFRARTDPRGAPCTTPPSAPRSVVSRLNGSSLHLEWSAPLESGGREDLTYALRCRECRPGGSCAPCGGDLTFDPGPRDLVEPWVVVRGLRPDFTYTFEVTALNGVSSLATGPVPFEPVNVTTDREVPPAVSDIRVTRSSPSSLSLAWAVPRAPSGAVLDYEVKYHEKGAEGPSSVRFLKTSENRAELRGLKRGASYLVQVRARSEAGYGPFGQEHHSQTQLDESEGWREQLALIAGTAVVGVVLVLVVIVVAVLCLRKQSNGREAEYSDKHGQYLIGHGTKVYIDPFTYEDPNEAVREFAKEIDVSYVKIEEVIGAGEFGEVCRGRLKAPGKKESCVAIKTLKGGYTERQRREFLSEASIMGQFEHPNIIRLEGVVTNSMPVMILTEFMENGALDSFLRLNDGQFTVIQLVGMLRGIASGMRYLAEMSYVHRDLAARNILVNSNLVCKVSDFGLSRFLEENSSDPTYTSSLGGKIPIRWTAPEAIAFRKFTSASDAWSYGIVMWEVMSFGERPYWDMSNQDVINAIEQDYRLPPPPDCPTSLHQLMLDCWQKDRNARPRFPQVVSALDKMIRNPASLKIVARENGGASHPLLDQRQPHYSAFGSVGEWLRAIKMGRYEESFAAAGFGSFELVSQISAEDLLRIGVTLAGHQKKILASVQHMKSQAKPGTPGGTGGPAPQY
The note with it: read-out: Remaining protein kinase activity.

The source of these data is PMC8617627, “Novel DYRK1A Inhibitor Rescues Learning and Memory Deficits in a Mouse Model of Down Syndrome” (Pharmaceuticals, 2021).

Molecules are shown by their SMILES. Where two headings read alike, the source gives them in different places.

Sequence of MPSK1 (O75716 whole entry): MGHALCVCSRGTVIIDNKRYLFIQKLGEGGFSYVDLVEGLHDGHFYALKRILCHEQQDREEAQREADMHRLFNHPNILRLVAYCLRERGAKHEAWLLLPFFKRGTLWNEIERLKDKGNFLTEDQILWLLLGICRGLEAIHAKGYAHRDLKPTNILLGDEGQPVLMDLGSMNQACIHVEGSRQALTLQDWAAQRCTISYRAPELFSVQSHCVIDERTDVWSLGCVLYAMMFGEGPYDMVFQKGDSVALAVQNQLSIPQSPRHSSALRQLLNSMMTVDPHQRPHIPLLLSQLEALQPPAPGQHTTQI

The term remaining activity denotes the signal under treatment as a percentage of the control signal. For the molecule `COc1ccc2sc(-c3cncc(N)c3)nc2c1` [compound 1, 5-(5-Methoxybenzo[d]thiazol-2-yl)pyridin-3-amine], the “Remaining protein kinase activity” value in assay [1] (1 μM) is listed as 116%; in assay [1] (100 μM), 77%. The remaining activity at 1 µM in assay [2] (MPSK1, 1 μM) came out at 110%; in assay [3] (EPH-B4, 1 μM), 112%. Besides, the remaining activity at 100 µM in assay [2] (MPSK1, 100 μM) was 106%; in assay [3] (EPH-B4, 100 μM) it was 97%.
For the molecule `COc1ccc2sc(-c3cncc(NC(C)=O)c3)nc2c1` [PST-001, N-(5-(5-Methoxybenzo[d]thiazol-2-yl)pyridin-3-yl)acetamide], the “Remaining protein kinase activity” value in assay [1] (1 μM) amounted to 129%; in assay [1] (100 μM) it was 120%. The remaining activity at 1 µM in assay [2] came out at 121%. Also, the remaining activity at 100 µM was found to be 113% in assay [2] and 130% in assay [3].
